Data taken from patent publication US9255107B2 (NANJING SANHOME PHARMACEUTICAL CO., LTD., priority 2012, dated 2016).
Structures can show the parent of a compound that is named as a salt. Where two headings read alike, the source gives them in different places.

How the values were obtained:
K562 leukemia cells = assay: MTT assay, in vitro inhibitory activity on cells; type: cell-based; settings: Homo sapiens, typically 48 hours, read-out: IC50 K562 Chronic myelogenous leukemia cells
Excerpt: (§1) In this example, MTT assay was used to detect in vitro inhibitory activity of the compounds prepared according to the above examples on the cells.
(§2) Dimethyl sulfoxide (DMSO) is capable of dissolving formazan in cells, and absorbance value can be measured at a wavelength of 490 nm by an enzyme-linked immunometric meter, which reflects the number of living cells. Within a certain range of the number of cells, the amount of MTT crystals formed is proportional to the number of living cells.
(§3) 2. Culturing in a 37° C., 5% CO2 incubator and keeping the cells adhering to the walls of the wells.
(§4) 4. Carefully removing the supernatant, gently washing with PBS and discarding the supernatant again.
(§5) 6. Terminating culturing and carefully discarding the medium in each well. 7. Adding 150 μl dimethyl sulfoxide into each well, shaking for 10 minutes at low speed in a shaker, to make crystals fully dissolved.
(§6) 8. Measuring the absorbance of each well at 490 nm by an enzyme-linked immunometric meter.

[1] = test system: MDA-MB-231 human breast cancer cells; assay: MTT assay, in vitro inhibitory activity on cells; type: cell-based; settings: typically 48 hours
Excerpt: as §1, §2, §3, §4, §5, §6

[2] = test system: Ovcar-3 human ovarian cancer cells; assay: MTT assay, in vitro inhibitory activity on cells; type: cell-based; settings: typically 48 hours
Excerpt: as §1, §2, §3, §4, §5, §6

[3] = test system: Saos-2 human osteosarcoma cells; assay: MTT assay, in vitro inhibitory activity on cells; type: cell-based; settings: typically 48 hours
Excerpt: as §1, §2, §3, §4, §5, §6

[4] = Pharmacokinetic studies in male SD rats; type: in vivo; settings: rat, plasma; for MRT inf: read-out: MRT(0-∞)
Protocol: The compound prepared in Example 27 of the present invention was illustratively selected for this experiment. The pharmaceutical formulation for oral administration was made by dissolving the compound in physiological saline to prepare 3 mg/ml of suspension. The pharmaceutical formulation for caudal vein injection was made by using a mixed solution of DMSO, polyoxyethylene castor oil and physiological saline in the volume ratio of 1:30:69 to prepare 2.5 mg/ml of solution.
Male SD rats, each group of three, weighing 150 g-250 g, were provided by Shanghai SIPPR-BK Laboratory Animal Co. Ltd., China. The tested rats were acclimatized to the environment for 2-4 days prior to the experiment, and fasted for 8-12 hours before administration. The rats drank water freely 2 hours after administration, and were fed food 4 hours after administration.
1) Taking blank plasma (zero-hour sample) after the SD rats were fasted but allowed drinking water freely for 12 hours;
2) Administering to three rats in Step 1) the compound prepared in Example 27 at 15 mg/kg by gavage (Intragastric administration, IG);
administering to another three rats in Step 1) the compound prepared in Example 27 at 3 mg/kg by caudal vein (Intravenous administration, IV);
(§7) 3) Collecting sequentially blood from retinal venous plexus of the rats at 10 min, 30 min, 1 h, 2 h, 4 h, 6 h, 8 h, 10 h, 24 h after gavage administration, placing into the heparin-coated EP tubes, taking the upper plasma after centrifuging for 5 min at 8000 rpm/min, and storing at −20° C. until LC-MS/MS analysis;
4) Calculating the pharmacokinetic parameters using WinNonlin software according to the blood concentration—time data obtained from Step 3), shown in Table 4;
as §7, with “5)” for “3)”, “5 min, 15” for “10”, “h,” for “h, 6 h,”, “8” for “8 h, 10”, “caudal vein” for “gavage”
6) Calculating the pharmacokinetic parameters using WinNonlin software according to the blood concentration—time data obtained from Step 5), shown in Table 4.

| SMILES | IC50 (K562 leukemia cells) | IC50 [1] | IC50 [2] | IC50 [3] | further results |
| --- | --- | --- | --- | --- | --- |
| Cc1ccc(NC(=O)Nc2ccc(CN3CCN(C)CC3)c(C(F)(F)F)c2)cc1C#Cc1cnc2[nH]ncc2c1 [Example 1, N-[3-((1H-pyrazolo[3,4-b]pyridin-5-yl)ethynyl)-4-methylphenyl]-N′-[4-((4-methylpiperazin-1-yl)methyl)-3-trifluoromethylphenyl]urea] | 4.13 µM | 2.79 µM | – | – | – |
| CNc1nc2cc(C#Cc3cc(NC(=O)Nc4ccc(CN5CCN(C)CC5)c(C(F)(F)F)c4)ccc3C)ccn2n1 [Example 7] | 5.07 µM | – | – | – | – |
| Cc1cn(-c2cc(NC(=O)c3ccc(F)c(C#Cc4cnc(-c5nc[nH]n5)n4C)c3)cc(C(F)(F)F)c2)cn1 [Example 16, 3-[1-methyl-2-([1,2,4]-1H-triazol-3-yl)imidazol-5-yl]ethynyl-4-fluoro-N-[3-trifluoromethyl-5-(4-methylimidazol-1-yl)phenyl]benzamide] | – | 1.27 µM | 4.72 µM | 1.16 µM | – |
| CNC(=O)c1cc(Oc2cc(NC(=O)c3ccc(F)c(C#Cc4cnc(-c5nc[nH]n5)n4C)c3)cc(C(F)(F)F)c2)ccn1 [Example 17, 4-fluoro-3-[1-methyl-2-([1,2,4]-1H-triazol-3-yl)imidazol-5-yl]ethynyl-N-[3-trifluoromethyl-5-(2-N-methylcarbamoylpyridin-4-yl)oxy]phenylbenzamide] | – | 0.98 µM | 3.98 µM | 0.64 µM | – |
| Cc1ccc(NC(=O)c2ccc(CN3CCN(C)CC3)cc2)cc1C#Cc1ccc(-c2ncc(C#N)[nH]2)nc1 [Example 21] | 3.59 µM | 2.06 µM | – | – | – |
| Cc1ccc(C(=O)Nc2ccc(CN3CC[C@H](N(C)C)C3)c(C(F)(F)F)c2)cc1C#Cc1ccc(-c2ncc(F)[nH]2)nc1 [Example 22, 4-methyl-3-((2-(5-fluoro-1H-imidazol-2-yl)pyridin-5-yl)ethynyl)-N-[(S)-4-((3-dimethylaminotetrahydropyrrol-1-yl)methyl)-3-trifluoromethylphenyl]benzamide] | 4.07 µM | 1.15 µM | – | – | – |
| Cc1ccc(C(=O)Nc2ccc(CN3CCN(C)CC3)c(C(F)(F)F)c2)cc1C#Cc1ccc(-c2nc[nH]n2)nc1 [Example 25, 4-methyl-3-((2-(1,2,4-triazol-3-yl)pyridin-5-yl)ethynyl)-N-[4-((4-methylpiperazin-1-yl)methyl)-3-trifluoromethylphenyl]benzamide] | 3.58 µM | 2.86 µM | – | – | – |
| CNC(=O)c1cc(Oc2ccc(NC(=O)c3ccc(C)c(C#Cc4ccc(-c5nc[nH]n5)nc4)c3)cc2)ccn1 [Example 26, 4-methyl-3-[2-([1,2,4]-1H-triazol-3-yl)pyridin-5-yl]ethynyl-N-[(2-N-methylcarbamoylpyridin-4-yl)oxy]phenylbenzamide] | 5.91 µM | – | – | – | – |
| Cc1ccc(C(=O)Nc2ccc(CN3CCN(C)CC3)c(C(F)(F)F)c2)cc1C#Cc1cnc2[nH]ccc2n1 [Example 27, hydrochloride] | – | – | – | – | AUC(0-inf) ([4]; iv, I.V. 3 mg/kg): 3380 ng·h/mL; AUC(0-t) ([4]; iv, I.V. 3 mg/kg): 3300 ng·h/mL; Cmax ([4]; iv, I.V. 3 mg/kg): 1270 ng/mL; half-life ([4]; iv, I.V. 3 mg/kg): 4.93 h; MRT inf ([4]; iv, I.V. 3 mg/kg): 4.92 h; bioavailability ([4]; oral, I.G. 15 mg/kg vs I.V. 3 mg/kg, read-out: F (oral bioavailability)): 32.6%; AUC(0-inf) ([4]; po, I.G. 15 mg/kg): 5220 ng·h/mL; AUC(0-t) ([4]; po, I.G. 15 mg/kg): 5370 ng·h/mL; Cmax ([4]; po, I.G. 15 mg/kg): 376 ng/mL; Tmax ([4]; po, I.G. 15 mg/kg): 7.33 h; half-life ([4]; po, I.G. 15 mg/kg): 4.1 h; MRT inf ([4]; po, I.G. 15 mg/kg): 7.71 h |

More lines, in order of falling IC50 (K562 leukemia cells), values ahead:

| IC50 (K562 leukemia cells) | IC50 [1] | IC50 [2] | IC50 [3] | SMILES | further results |
| --- | --- | --- | --- | --- | --- |
| 3.31 µM | – | – | – | Cc1ccc(NC(=O)Nc2ccc(CN3CCN(C)CC3)c(C(F)(F)F)c2)cc1C#Cc1ccc(-c2ncc(C#N)[nH]2)nc1 [Example 23, N-[3-(2-(5-acetonitrile-1H-imidazol-2-yl)pyridin-5-yl)ethynyl-4-methylphenyl]-N′-[3-trifluoromethyl-4-(4-methylpiperazin-1-ylmethyl)phenyl]urea] | – |
| 3.14 µM | 0.36 µM | 10.1 µM | 2.68 µM | Cc1ccc(C(=O)Nc2ccc(CN3CCN(C)CC3)c(C(F)(F)F)c2)cc1C#Cc1cn(C)c(-c2ncc([N+](=O)[O-])[nH]2)n1 [Example 11, 4-methyl-3-((1-methyl-5′-nitro-1H,1′H-[2,2′-diimidazol]-4-yl)ethynyl)-N-[4-((4-methylpiperazin-1-yl)methyl)-3-trifluoromethylphenyl]benzamide] | – |
| 2.31 µM | 1.27 µM | 4.06 µM | 5.73 µM | Cc1cnc(-c2nc(C#Cc3cc(C(=O)Nc4ccc(CN5CCN(CCO)CC5)c(C(F)(F)F)c4)ccc3C)cn2C)[nH]1 [Example 12, 4-methyl-3-((1-methyl-5′-methyl-1H,1′H-[2,2′-diimidazol]-4-yl)ethynyl)-N-[4-((4-hydroxyethylpiperazin-1-yl)methyl)-3-trifluoromethylphenyl]benzamide] | – |
| 2.21 µM | 4.72 µM | – | – | Cc1ccc(C(=O)Nc2ccc(CN3CC[C@@H](N(C)C)C3)c(C(F)(F)F)c2)cc1C#Cc1ccc(-c2ncc(C(F)(F)F)[nH]2)nc1 [Example 20, 4-methyl-3-((2-(5-trifluoromethyl-1H-imidazol-2-yl)pyridin-5-yl)ethynyl)-N—[(R)-4-((3-dimethylaminotetrahydropyrrol-1-yl)methyl)-3-trifluoromethylphenyl]benzamide] | – |
| 2.06 µM | 0.11 µM | 3.09 µM | 0.27 µM | Cc1ccc(NC(=O)Nc2ccc(CN3CCN(C)CC3)c(C(F)(F)F)c2)cc1C#Cc1cnc2[nH]ccc2n1 [Example 2, N-[3-((1H-pyrrolo[2,3-b]pyrazin-5-yl)ethynyl)-4-methylphenyl]-N′-[4-((4-methylpiperazin-1-yl)methyl)-3-trifluoromethylphenyl]urea] | – |
| 1.92 µM | 1.42 µM | 3.19 µM | 0.87 µM | Cc1ccc(C(=O)Nc2ccc(CN3CCN(C)CC3)c(C(F)(F)F)c2)cc1C#Cc1cn(C)c(-c2ncc[nH]2)n1 [Example 10, 4-methyl-3-((1-methyl-1H,1′H-[2,2′-diimidazol]-4-yl)ethynyl)-N-[4-((4-methylpiperazin-1-yl)methyl)-3-trifluoromethylphenyl]benzamide] | – |
| 0.94 µM | 1.17 µM | – | – | Cc1cn(-c2cc(C(=O)Nc3ccc(F)c(C#Cc4ccc(-c5ncc(C(F)(F)F)[nH]5)nc4)c3)cc(C(F)(F)F)c2)cn1 [Example 24, 3-trifluoromethyl-5-(4-methylimidazol-1-yl)-N-[3-(2-(5-trifluoromethyl-1H-imidazol-2-yl)pyridin-5-yl)ethynyl-4-fluorophenyl]-benzamide] | – |
| 0.52 µM | 0.29 µM | – | – | Cc1ccc(NC(=O)Nc2ccc(CN3CC[C@@H](N(C)C)C3)c(F)c2)cc1C#Cc1cn(C)c(-c2ncc(C(F)(F)F)[nH]2)n1 [Example 13, N-[4-methyl-3-((1-methyl-5′-trifluoromethyl-1H,1′H-[2,2′-diimidazol]-4-yl)ethynyl)phenyl]-N′—(R)-[4-((3-dimethylaminotetrahydropyrrol-1-yl)methyl)-3-fluorophenyl]urea] | – |
| 0.42 µM | – | – | – | Cc1ccc(NC(=O)Nc2ccc(CN3CCN(C)CC3)c(C(F)(F)F)c2)cc1C#Cc1ccn2nc(N(C)C)nc2c1 [Example 8] | – |
| 0.37 µM | 0.56 µM | – | – | Cc1ccc(NC(=O)c2ccc(CN3CCN(CCO)CC3)c(C(F)(F)F)c2)cc1C#Cc1cn(C)c(-c2ncc(C(F)(F)F)[nH]2)n1 [Example 15] | – |
| 0.16 µM | 1.21 µM | – | – | Cc1ccc(NC(=O)Nc2ccc(CN3CCN(C)CC3)c(C(F)(F)F)c2)cc1C#Cc1cn(C)c(-c2ncc(C(F)(F)F)[nH]2)n1 [Example 14, N-[4-methyl-3-((1-methyl-5′-trifluoromethyl-1H,1′H-[2,2′-diimidazol]-4-yl)ethynyl)phenyl]-N′-[4-((4-methylpiperazin-1-yl)methyl)-3-trifluoromethylphenyl]urea] | – |
